# From patent publication US10238670B2, “9-aminomethyl minocycline compounds and methods of use thereof in urinary tract infection (UTI) treatment” (Paratek Pharmaceuticals, Inc., priority 2016, dated 2019)
# Assay: Phase 1b study in female adults with cystitis, urine PK
# Type: in vivo, human
# Conditions: urine
# Description: Urine was collected, the volume recorded, and analyzed for Compound 1 concentration at the following times: • Day 1 to 2: pooled total urine 0 to 4, 4 to 8, 8 to 12, and 12-24 hours after the t=0 h dose; Collection of the 12 to 24 h sample should be completed prior to the t=24 h dose on Day 2; • Day 5 to 6: pooled total urine 0 to 4, 4 to 8, 8 to 12, and 12-24 hours after the t=96 h dose;
# Urine was pooled during the intervals above. At the end of each interval, the time and total volume were recorded.
# Compound 1 urine concentration data was used to determine the amount excreted in a dosing interval, the urinary excretion rate, and, in conjunction with the plasma concentration data, to estimate the renal clearance (CLr) of Compound 1.
# Urine was collected and the volume recorded at the following times: • Day 1 to 2: pooled total urine 0 to 4, 4 to 8, 8 to 12, and 12-24 hours after the t=0 h dose; • Day 5 to 6: pooled total urine 0 to 4, 4 to 8, 8 to 12, and 12-24 hours after the t=96 h dose;
# At the end of each collection time period the pooled urine was frozen at −20° C. or colder and the total volume of urine collected for the time period was recorded. The samples were kept frozen at −20° C. or colder pending shipment to the bioanalytical laboratory.
# The urine sample volume, its Compound 1 concentration, the amount of Compound 1 excreted in the urine (product of volume and concentration) over a dosing interval, the urinary excretion rates and renal clearance (CLr) of Compound 1 following the initial Day 1 and final Day 5 doses were summarized by the treatment groups.
compound,measurement,setting,value
"CN(C)c1cc(CNCC(C)(C)C)c(O)c2c1C[C@H]1C[C@H]3[C@H](N(C)C)C(O)=C(C(N)=O)C(=O)[C@@]3(O)C(O)=C1C2=O [Compound 1, 9-[(2,2-dimethyl-propylamino)-methyl]-minocycline]","Ae 12-24 hrs, Mean","Day 1, IV_PO300",14.00 mg
same,"Ae 12-24 hrs, Median","Day 1, IV_PO300",12.32 mg
same,"Fe 0-24 hrs, Geo. Mean","Day 1, IV_PO300",18.49%
same,"Fe 0-24 hrs, Mean","Day 1, IV_PO300",20.35%
same,"Fe 0-24 hrs, Median","Day 1, IV_PO300",20.70%
same,"Ae 0-4 hrs, Geo. Mean","Day 1, PO300",5.90 mg
same,"Ae 0-4 hrs, Mean","Day 1, PO300",6.41 mg
same,"Ae 0-4 hrs, Median","Day 1, PO300",6.58 mg
same,"Ae 0-24 hrs, Geo. Mean","Day 1, PO300",36.94 mg
same,"Ae 0-24 hrs, Median","Day 1, PO300",39.07 mg
same,"Ae 4-8 hrs, Geo. Mean","Day 1, PO300",6.42 mg
same,"Ae 4-8 hrs, Mean","Day 1, PO300",7.60 mg
same,"Ae 4-8 hrs, Median","Day 1, PO300",6.28 mg
same,"Ae 8-12 hrs, Geo. Mean","Day 1, PO300",7.22 mg
same,"Ae 8-12 hrs, Mean","Day 1, PO300",9.17 mg
same,"Ae 8-12 hrs, Median","Day 1, PO300",6.86 mg
same,"Ae 12-24 hrs, Geo. Mean","Day 1, PO300",14.19 mg
same,"Ae 12-24 hrs, Mean","Day 1, PO300",16.82 mg
same,"Ae 12-24 hrs, Median","Day 1, PO300",16.30 mg
same,"Fe 0-24 hrs, Geo. Mean","Day 1, PO300",6.16%
same,"Fe 0-24 hrs, Mean","Day 1, PO300",6.54%
same,"Fe 0-24 hrs, Median","Day 1, PO300",6.51%
same,"Ae 0-4 hrs, Geo. Mean","Day 1, PO450",3.96 mg
same,"Ae 0-4 hrs, Mean","Day 1, PO450",7.27 mg
same,"Ae 0-4 hrs, Median","Day 1, PO450",5.05 mg
same,"Ae 0-24 hrs, Geo. Mean","Day 1, PO450",34.07 mg
same,"Ae 0-24 hrs, Median","Day 1, PO450",37.30 mg
same,"Ae 4-8 hrs, Geo. Mean","Day 1, PO450",6.00 mg
same,"Ae 4-8 hrs, Mean","Day 1, PO450",7.11 mg
same,"Ae 4-8 hrs, Median","Day 1, PO450",6.16 mg
same,"Ae 8-12 hrs, Geo. Mean","Day 1, PO450",4.75 mg
same,"Ae 8-12 hrs, Mean","Day 1, PO450",5.36 mg
same,"Ae 8-12 hrs, Median","Day 1, PO450",5.27 mg
same,"Ae 12-24 hrs, Geo. Mean","Day 1, PO450",14.57 mg
same,"Ae 12-24 hrs, Mean","Day 1, PO450",16.92 mg
same,"Ae 12-24 hrs, Median","Day 1, PO450",15.98 mg
same,"Fe 0-24 hrs, Geo. Mean","Day 1, PO450",3.79%
same,"Fe 0-24 hrs, Mean","Day 1, PO450",3.99%
same,"Fe 0-24 hrs, Median","Day 1, PO450",4.14%
same,"Ae 0-4 hrs, Geo. Mean","Day 5, IV_PO300",3.89 mg
same,"Ae 0-4 hrs, Mean","Day 5, IV_PO300",7.74 mg
same,"Ae 0-4 hrs, Median","Day 5, IV_PO300",4.99 mg
same,"Ae 0-24 hrs, Geo. Mean","Day 5, IV_PO300",21.72 mg
same,"Ae 0-24 hrs, Median","Day 5, IV_PO300",31.29 mg
same,"Ae 4-8 hrs, Geo. Mean","Day 5, IV_PO300",5.22 mg
same,"Ae 4-8 hrs, Mean","Day 5, IV_PO300",8.38 mg
same,"Ae 4-8 hrs, Median","Day 5, IV_PO300",7.13 mg
same,"Ae 8-12 hrs, Geo. Mean","Day 5, IV_PO300",3.94 mg
same,"Ae 8-12 hrs, Mean","Day 5, IV_PO300",6.28 mg
same,"Ae 8-12 hrs, Median","Day 5, IV_PO300",6.47 mg
same,"Ae 12-24 hrs, Geo. Mean","Day 5, IV_PO300",7.31 mg
same,"Ae 12-24 hrs, Mean","Day 5, IV_PO300",10.71 mg
same,"Ae 12-24 hrs, Median","Day 5, IV_PO300",11.25 mg
same,"Fe 0-24 hrs, Geo. Mean","Day 5, IV_PO300",7.24%
same,"Fe 0-24 hrs, Mean","Day 5, IV_PO300",10.76%
same,"Fe 0-24 hrs, Median","Day 5, IV_PO300",10.43%
same,"Ae 0-4 hrs, Geo. Mean","Day 5, PO300",7.20 mg
same,"Ae 0-4 hrs, Mean","Day 5, PO300",10.02 mg
same,"Ae 0-4 hrs, Median","Day 5, PO300",9.35 mg
same,"Ae 0-24 hrs, Geo. Mean","Day 5, PO300",31.46 mg
same,"Ae 0-24 hrs, Median","Day 5, PO300",34.96 mg
same,"Ae 4-8 hrs, Geo. Mean","Day 5, PO300",9.17 mg
same,"Ae 4-8 hrs, Mean","Day 5, PO300",10.54 mg
same,"Ae 4-8 hrs, Median","Day 5, PO300",8.05 mg
same,"Ae 8-12 hrs, Geo. Mean","Day 5, PO300",5.02 mg
same,"Ae 8-12 hrs, Mean","Day 5, PO300",6.74 mg
same,"Ae 8-12 hrs, Median","Day 5, PO300",7.29 mg
same,"Ae 12-24 hrs, Geo. Mean","Day 5, PO300",10.71 mg
same,"Ae 12-24 hrs, Mean","Day 5, PO300",11.95 mg
same,"Ae 12-24 hrs, Median","Day 5, PO300",11.38 mg
same,"Fe 0-24 hrs, Geo. Mean","Day 5, PO300",10.49%
same,"Fe 0-24 hrs, Mean","Day 5, PO300",12.74%
same,"Fe 0-24 hrs, Median","Day 5, PO300",11.65%
same,"Ae 0-4 hrs, Geo. Mean","Day 5, PO450",9.50 mg
same,"Ae 0-4 hrs, Mean","Day 5, PO450",12.07 mg
same,"Ae 0-4 hrs, Median","Day 5, PO450",11.76 mg
same,"Ae 0-24 hrs, Geo. Mean","Day 5, PO450",43.60 mg
same,"Ae 0-24 hrs, Median","Day 5, PO450",50.26 mg
same,"Ae 4-8 hrs, Geo. Mean","Day 5, PO450",11.02 mg
same,"Ae 4-8 hrs, Mean","Day 5, PO450",19.74 mg
same,"Ae 4-8 hrs, Median","Day 5, PO450",10.30 mg
same,"Ae 8-12 hrs, Geo. Mean","Day 5, PO450",6.01 mg
same,"Ae 8-12 hrs, Mean","Day 5, PO450",7.54 mg
same,"Ae 8-12 hrs, Median","Day 5, PO450",5.62 mg
same,"Ae 12-24 hrs, Geo. Mean","Day 5, PO450",15.26 mg
same,"Ae 12-24 hrs, Mean","Day 5, PO450",18.59 mg
same,"Ae 12-24 hrs, Median","Day 5, PO450",20.23 mg
same,"Fe 0-24 hrs, Geo. Mean","Day 5, PO450",9.69%
same,"Fe 0-24 hrs, Mean","Day 5, PO450",12.19%
same,"Fe 0-24 hrs, Median","Day 5, PO450",11.17%
